Laboratory results taken from patent publication US6352958B1, “Cycloimido-substituted benzofused heterocyclic herbicides” (FMC Corporation, priority 1997, dated 2002).

Assays:
Format in all cases: in vivo
[1] = system: soybean (Glycine max var. Winchester); assay: Preemergence herbicidal activity, soybean; details: Rate of Application 0.3 Kg/Ha, examined after 12-17 days
[2] = system: wheat (Triticum aestivum var. Lew); assay: Preemergence herbicidal activity, wheat; details: Rate of Application 0.3 Kg/Ha, examined after 12-17 days
[3] = system: field corn (Zea mays var. Pioneer 3732); assay: Preemergence herbicidal activity, corn; details: Rate of Application 0.3 Kg/Ha, examined after 12-17 days
[4] = system: velvetleaf (Abutilon theophrasti); assay: Preemergence herbicidal activity, velvetleaf; details: Rate of Application 0.3 Kg/Ha, examined after 12-17 days
[5] = system: morningglory (Ipomea lacunosa or Ipomea hederacea); assay: Preemergence herbicidal activity, morningglory; details: Rate of Application 0.3 Kg/Ha, examined after 12-17 days
[6] = system: common chickweed (Stellaria media); assay: Preemergence herbicidal activity, chickweed; details: Rate of Application 0.3 Kg/Ha, examined after 12-17 days
[7] = system: common cocklebur (Xanthium strumarium L.); assay: Preemergence herbicidal activity, cocklebur; details: Rate of Application 0.3 Kg/Ha, examined after 12-17 days
[8] = system: blackgrass (Aloepecurus myosuroides); assay: Preemergence herbicidal activity, blackgrass; details: Rate of Application 0.3 Kg/Ha, examined after 12-17 days
[9] = system: green foxtail (Setaria viridis); assay: Preemergence herbicidal activity, green foxtail; details: Rate of Application 0.3 Kg/Ha, examined after 12-17 days
[10] = system: Johnsongrass (Sorghum halepense); assay: Preemergence herbicidal activity, johnsongrass; details: Rate of Application 0.3 Kg/Ha, examined after 12-17 days
[11] = system: soybean (Glycine max var. Winchester); assay: Postemergence herbicidal activity, soybean; details: rate of application 0.3 Kg/Ha, rated after 12-17 days
[12] = system: wheat (Triticum aestivum var. Lew); assay: Postemergence herbicidal activity, wheat; details: rate of application 0.3 Kg/Ha, rated after 12-17 days
[13] = system: field corn (Zea mays var. Pioneer 3732); assay: Postemergence herbicidal activity, corn; details: rate of application 0.3 Kg/Ha, rated after 12-17 days
[14] = system: velvetleaf (Abutilon theophrasti); assay: Postemergence herbicidal activity, velvetleaf; details: rate of application 0.3 Kg/Ha, rated after 12-17 days
[15] = system: morningglory (Ipomea lacunosa or Ipomea hederacea); assay: Postemergence herbicidal activity, morningglory; details: rate of application 0.3 Kg/Ha, rated after 12-17 days
[16] = system: common chickweed (Stellaria media); assay: Postemergence herbicidal activity, chickweed; details: rate of application 0.3 Kg/Ha, rated after 12-17 days
[17] = system: common cocklebur (Xanthium strumarium L.); assay: Postemergence herbicidal activity, cocklebur; details: rate of application 0.3 Kg/Ha, rated after 12-17 days
[18] = system: blackgrass (Aloepecurus myosuroides); assay: Postemergence herbicidal activity, blackgrass; details: rate of application 0.3 Kg/Ha, rated after 12-17 days
[19] = system: green foxtail (Setaria viridis); assay: Postemergence herbicidal activity, green foxtail; details: rate of application 0.3 Kg/Ha, rated after 12-17 days
[20] = system: Johnsongrass (Sorghum halepense); assay: Postemergence herbicidal activity, johnsongrass; details: rate of application 0.3 Kg/Ha, rated after 12-17 days

Compound | PREEMERGENCE HERBICIDAL ACTIVITY (% CONTROL) SOY [1] | PREEMERGENCE HERBICIDAL ACTIVITY (% CONTROL) WHT [2] | PREEMERGENCE HERBICIDAL ACTIVITY (% CONTROL) CRN [3] | PREEMERGENCE HERBICIDAL ACTIVITY (% CONTROL) ABUTH [4] | PREEMERGENCE HERBICIDAL ACTIVITY (% CONTROL) IPOSS [5] | PREEMERGENCE HERBICIDAL ACTIVITY (% CONTROL) STEME [6] | PREEMERGENCE HERBICIDAL ACTIVITY (% CONTROL) XANPE [7] | PREEMERGENCE HERBICIDAL ACTIVITY (% CONTROL) ALOMY [8] | PREEMERGENCE HERBICIDAL ACTIVITY (% CONTROL) SETVI [9] | PREEMERGENCE HERBICIDAL ACTIVITY (% CONTROL) SORHA [10] | Postemergence herbicidal activity (% control) SOY [11] | Postemergence herbicidal activity (% control) WHT [12] | Postemergence herbicidal activity (% control) CRN [13] | Postemergence herbicidal activity (% control) ABUTH [14] | Postemergence herbicidal activity (% control) IPOSS [15] | Postemergence herbicidal activity (% control) STEME [16] | Postemergence herbicidal activity (% control) XANPE [17] | Postemergence herbicidal activity (% control) ALOMY [18] | Postemergence herbicidal activity (% control) SETVI [19] | Postemergence herbicidal activity (% control) SORHA [20]
CCOC(=O)c1cc2c(-n3c(=O)cc(C(F)(F)F)n(C)c3=O)c(F)cc(Cl)c2[nH]1 [Compound 493] | 80% | 70% | 90% | 100% | 100% | 100% | 70% | 75% | 100% | 100% | 95% | 60% | 90% | 100% | 100% | 80% | 100% | 65% | 100% | 100%
C=Cc1cc2c(Cl)cc(F)c(-n3c(=O)cc(C(F)(F)F)n(C)c3=O)c2o1 [Compound 230] | 100% | 40% | 80% | 100% | 100% | 100% | 100% | 80% | 100% | 100% | 95% | 40% | 80% | 100% | 100% | 90% | 100% | 70% | 100% | 90%
Cn1c(C(F)(F)F)cc(=O)n(-c2c(F)cc(Cl)c3nc(-c4ccccc4)[nH]c23)c1=O [Compound 375] | 80% | 30% | 90% | 100% | 80% | 95% | 80% | 80% | 100% | 95% | 95% | 40% | 90% | 100% | 95% | 100% | 100% | 90% | 80% | 100%
